In patent US20250280829A1, “USE OF (5S)-3-[3-(3-CHLORO-2-FLUOROPHENOXY)-6-METHYLPYRIDAZIN-4-YL]-5-(2-CHLORO-4-METHYLBENZYL)-5,6-DIHYDRO-4H-1,2,4-OXADIAZINE FOR CONTROLLING UNWANTED MICROORGANISMS” (Bayer Aktiengesellschaft, priority 2022, published 2025) one finds efficacy and inhibition data, which are given here for 1 compound.

The test system of one test is Fusarium graminearum. It counts as in vivo. Conditions: 500 ppm of active ingredient; preventive spray on wheat; evaluated 5 days after inoculation.
For test [1], the system named is Botrytis cinerea. Briefly: In vivo preventive test on Botrytis cinerea (grey mould). The note with it: 500 ppm of active ingredient; preventive spray on gherkin or cabbage; evaluated 4 to 5 days after inoculation. As for the experimental part: a-2. In Vivo Preventive Test on Botrytis cinerea (Grey Mould) [table] The active ingredients were made soluble and homogenized in a mixture of Dimethyl sulfoxide/Acetone//Tween® 80 and then diluted in water to the desired concentration. The young plants of gherkin or cabbage were treated by spraying the active ingredient prepared as described above. Control plants were treated only with an aqueous solution of Acetone/Dimethyl sulfoxide/Tween® 80. After 24 hours, the plants were contaminated by spraying the leaves with an aqueous suspension of Botrytis cinerea spores. The contaminated gherkin plants were incubated for 4 to 5 days at 17° C. and at 90% relative humidity. The contaminated cabbage plants were incubated for 4 to 5 days at 20° C. and at 100% relative humidity.

A further test relates to Pyricularia Oryzae. Kind of test: microbe, parasite or virus in culture. Format: cell-based. Conditions: 120 h, read-out: efficacy (inhibition of fungal growth).
In test [2] the test system is Septoria tritici. Briefly: Septoria tritici in vitro cell test. Format: cell-based. The note with it: Zymoseptoria tritici, 168 h; 20 ppm of active ingredient; liquid culture; 7 days incubation; read-out: efficacy (inhibition of fungal growth). As for the experimental part: a-15. Septoria tritici In Vitro Cell Test [table] Fungicides were solubilized in DMSO and the solution used to prepare the required range of concentrations. The final concentration of DMSO used in the assay was ≤1%. A spore suspension of S. tritici was prepared and diluted to the desired spore density. Fungicides were evaluated for their ability to inhibit spore germination and mycelium growth in liquid culture assay. The compounds were added in the desired concentration to the culture medium with spores. […] Inhibition of fungal growth was determined by comparing the absorbance values in wells containing the fungicides with the absorbance in control wells without fungicides.

The next test concerns Fusarium culmorum. Kind of test: Fusarium culmorum in vitro cell test. It counts as cell-based. Conditions: 96 h, 20 ppm of active ingredient, liquid culture, 4 days incubation, read-out: efficacy (inhibition of fungal growth). As to the method: a-8. Fusarium culmorum In Vitro Cell Test
Fungicides were solubilized in DMSO and the solution used to prepare the required range of concentrations. The final concentration of DMSO used in the assay was ≤1%.
A spore suspension of F. culmorum was prepared and diluted to the desired spore density.
Fungicides were evaluated for their ability to inhibit spore germination and mycelium growth in liquid culture assay. The compounds were added in the desired concentration to the culture medium with spores. After 4 days incubation, fungi-toxicity of compounds was determined by spectrometric measurement of mycelium growth. Inhibition of fungal growth was determined by comparing the absorbance values in wells containing the fungicides with the absorbance in control wells without fungicides.

Test [3] relates to Septoria tritici. Kind of test: In vivo preventive test on Septoria tritici (leaf spot on wheat). The note with it: 500 ppm of active ingredient; preventive spray on wheat; evaluated 17 to 19 days after inoculation. As for the experimental part: a-4. In Vivo Preventive Test on Septoria tritici (Leaf Spot on Wheat) [table] The active ingredients were made soluble and homogenized in a mixture of Dimethyl sulfoxide/Acetone//Tween® 80 and then diluted in water to the desired concentration. The young plants of wheat were treated by spraying the active ingredient prepared as described above. Control plants were treated only with an aqueous solution of Acetone/Dimethyl sulfoxide/Tween® 80. After 24 hours, the plants were contaminated by spraying the leaves with an aqueous suspension of Septoria tritici spores. The contaminated wheat plants were incubated for 72 hours at 17° C. and at 100% relative humidity and then for 14 to 16 days at 20° C. and at 90% relative humidity.

A further test relates to Alternaria brassicae. Kind of test: In vivo preventive test on Alternaria brassicae (leaf spot on radish or cabbage). Conditions: 500 ppm of active ingredient; preventive spray on radish or cabbage; evaluated 3 to 4 days after inoculation. As to the method:
a-1. In Vivo Preventive Test on Alternaria brassicae (Leaf Spot on Radish or Cabbage) [table] The active ingredients were made soluble and homogenized in a mixture of Dimethyl sulfoxide/Acetone//Tween® 80 and then diluted in water to the desired concentration. The young plants of radish or cabbage were treated by spraying the active ingredient prepared as described above. Control plants were treated only with an aqueous solution of Acetone/Dimethyl sulfoxide/Tween® 80. After 24 hours, the plants were contaminated by spraying the leaves with an aqueous suspension of Alternaria brassicae spores. The contaminated radish or cabbage plants were incubated for 3 to 4 days at 20° C. and at 100% relative humidity.

The subject of another test is Fusarium virguliforme. Kind of test: Fusarium virguliforme in vitro cell test. It counts as cell-based. The note with it: 144 h, 20 ppm of active ingredient, liquid culture, 6 days incubation, read-out: efficacy (inhibition of fungal growth). As for the experimental part: (§1) a-13. Fusarium virguliforme In Vitro Cell Test [table] Fungicides were solubilized in DMSO and the solution used to prepare the required range of concentrations. The final concentration of DMSO used in the assay was ≤1%. A spore suspension of F. virguliforme was prepared and diluted to the desired spore density. Fungicides were evaluated for their ability to inhibit spore germination and mycelium growth in liquid culture assay. The compounds were added in the desired concentration to the culture medium with spores. After 6 days incubation, fungi-toxicity of compounds was determined by spectrometric measurement of mycelium growth. Inhibition of fungal growth was determined by comparing the absorbance values in wells containing the fungicides with the absorbance in control wells without fungicides.

The subject of test [4] is Colletotrichum lindemuthianum. Kind of test: Colletotrichum lindemuthianum in vitro cell test. It counts as cell-based. Conditions: 144 h, 20 ppm of active ingredient, liquid culture, 6 days incubation, read-out: efficacy (inhibition of fungal growth). As for the experimental part: as §1, with “a-11. Colletotrichum lindemuthianum In” for “a-13. Fusarium virguliforme In”, “of C. lindemuthianum” for “of F. virguliforme”, “inhibit spores” for “inhibit spore”

Test [5] relates to Pyrenophora teres. Briefly: Pyrenophora teres in vitro cell test. Format: cell-based. The note with it: 144 h, 20 ppm of active ingredient, liquid culture, 6 days incubation, read-out: efficacy (inhibition of fungal growth). As for the experimental part: as §1, with “a-12. Pyrenophora teres” for “a-13. Fusarium virguliforme”, “P. teres” for “F. virguliforme”
Test [6] deals with Pyrenophora teres. Kind of test: In vivo preventive test on Pyrenophora teres (net blotch on barley). The note with it: 500 ppm of active ingredient; preventive spray on barley; evaluated 10 days after inoculation. As for the experimental part:
a-3. In Vivo Preventive Test on Pyrenophora teres (Net Blotch on Barley) [table] The active ingredients were made soluble and homogenized in a mixture of Dimethyl sulfoxide/Acetone//Tween® 80 and then diluted in water to the desired concentration. The young plants of barley were treated by spraying the active ingredient prepared as described above. Control plants were treated only with an aqueous solution of Acetone/Dimethyl sulfoxide/Tween® 80. After 24 hours, the plants were contaminated by spraying the leaves with an aqueous suspension of Pyrenophora teres spores.

The next test relates to Ustilago avenae. Kind of test: Ustilago avenae in vitro cell test. Format: cell-based. The note with it: 96 h, 20 ppm of active ingredient, liquid culture, 4 days of incubation, read-out: efficacy (inhibition of fungal growth). As to the method: a-10. Ustilago avenae In Vitro Cell Test [table] Fungicides were solubilized in DMSO and the solution used to prepare the required range of concentrations. The final concentration of DMSO used in the assay was ≤1%. Inoculum was prepared from a pre-culture of U. avenae grown in liquid medium and diluted to the desired optical density (OD). Fungicides were evaluated for their ability to inhibit mycelium growth in liquid culture assay. The compounds were added in the desired concentrations to culture medium containing the spore suspension. After 4 days of incubation, the fungicidal efficacy of compounds was determined by spectrometric measurement of mycelium growth. Inhibition of fungal growth was determined by comparing the absorbance values in wells containing the fungicides with the absorbance in control wells without fungicides.

The test system of test [7] is Colletotrichum lindemuthianum. Kind of test: In vivo preventive test on Colletotrichum lindemuthianum (leaf spot on bean). The note with it: 500 ppm of active ingredient; preventive spray on bean; evaluated 7 days after inoculation. As for the experimental part: a-6. In Vivo Preventive Test on Colletotrichum lindemuthianum (Leaf Spot on Bean) [table] The active ingredients were made soluble and homogenized in a mixture of Dimethyl sulfoxide/Acetone//Tween® 80 and then diluted in water to the desired concentration. The young plants of bean were treated by spraying the active ingredient prepared as described above. Control plants were treated only with an aqueous solution of Acetone/Dimethyl sulfoxide/Tween® 80. After 24 hours, the plants were contaminated by spraying the leaves with an aqueous suspension of Colletotrichum lindemuthianum spores. The contaminated bean plants were incubated for 24 hours at 20° C. and at 100% relative humidity and then for 6 days at 20° C. and at 90% relative humidity.

In another test the test system is Alternaria alternata. Kind of test: Alternaria alternata in vitro cell test. Conditions: 120 h, 20 ppm of active ingredient, liquid culture, 5 days incubation, read-out: efficacy (inhibition of fungal growth). Format: cell-based. As to the method:
as §1, with “a-7. Alternaria alternata” for “a-13. Fusarium virguliforme”, “A. alternata” for “F. virguliforme”, “5” for “6”

For test [8], the system named is Botrytis cinerea. Briefly: Botrytis cinerea in vitro cell test. The note with it: 144 h, 20 ppm of active ingredient, liquid culture, 6 days incubation, read-out: efficacy (inhibition of fungal growth). It counts as cell-based. As to the method: as §1, with “a-14. Botrytis cinerea” for “a-13. Fusarium virguliforme”, “B. cinerea” for “F. virguliforme”
Another test deals with Sphaerotheca fuliginea. Kind of test: In vivo preventive test on Sphaerotheca fuliginea (powdery mildew on cucurbits). The note with it: 500 ppm of active ingredient; preventive spray on gherkin; evaluated 8 days after inoculation. As for the experimental part: a-5. In Vivo Preventive Test on Sphaerotheca fuliginea (Powdery Mildew on Cucurbits) [table] The active ingredients were made soluble and homogenized in a mixture of Dimethyl sulfoxide/Acetone//Tween® 80 and then diluted in water to the desired concentration. The young plants of gherkin were treated by spraying the active ingredient prepared as described above. Control plants were treated only with an aqueous solution of Acetone/Dimethyl sulfoxide/Tween® 80. After 24 hours, the plants were contaminated by spraying the leaves with an aqueous suspension of Sphaerotheca fuliginea spores.

Molecules are shown by their SMILES. A value given as a limit tells only on which side of the number the result lay.

For the compound `Cc1ccc(C[C@H]2CON=C(c3cc(C)nnc3Oc3cccc(Cl)c3F)N2)c(Cl)c1` [compound (I), (5S)-3-[3-(3-chloro-2-fluorophenoxy)-6-methylpyridazin-4-yl]-5-(2-chloro-4-methylbenzyl)-5,6-dihydro-4H-1,2,4-oxadiazine], the efficacy entry (with Fusarium graminearum; in the test with Botrytis cinerea [1]; with Septoria tritici [3]; in the test on Alternaria brassicae; with Pyrenophora teres [6]; in [7]) was “at least 70%” each time. Also, in the test on Sphaerotheca fuliginea, the efficacy result was “at least 70%”. Moreover, the inhibition at 20 ppm (in the test on Pyricularia Oryzae; in the test with Septoria tritici [2]; in the test on Fusarium culmorum; in the test with Fusarium virguliforme; in [4]; in the test on Pyrenophora teres [5]) was not below 70% throughout. Further, the inhibition at 20 ppm with Ustilago avenae, with Alternaria alternata and in the test on Botrytis cinerea [8] was not below 70% throughout.
